Results: patent US20250114331A1, “CONCURRENT TARGETING OF ONCOGENIC PATHWAYS TO ENHANCE CHEMOTHERAPY AND IMMUNOTHERAPY” (THE JOHNS HOPKINS UNIVERSITY, priority 2021, published 2025)
“Also recorded” adds a separate entry of the source.

What was measured:
[1] = test system: H1299 and H1437 cells; test: qRT-PCR of YAP1 and STAT3 pathway genes after drug treatment for 72 hours; type: cell-based, human
Description: qRT-PCR. The mRNA expression level of each gene was determined by qRT-PCR. […] We quantified the β-actin mRNA level to normalize the expression levels of the targeted genes. Each sample was tested in triplicate and run three times. Each graph shown in our figures indicates the average mRNA expression level of targeted genes compared with the β-actin expression level, with standard error of mean. To determine doses of these drugs that are effective for pathway inhibition, H1299 and H1437 cells were treated with verteporfin or S3I-201 for 72 hours.

[2] = test system: H1299 and H1437 cells; test: Immunoblotting of YAP1, STAT3 and pSTAT3 after drug treatment; type: cell-based, human
Description: Western blotting. Cells were dissolved in RIPA buffer (Thermo Fisher Scientific) supplemented with proteinase inhibitor and phosphatase inhibitor cocktails (Roche, Mannheim, Germany). After total protein lysate was electrophoretically transferred onto PVDF membrane, the membrane was blocked with 5% skim milk in 0.05% TBS-Tween buffer and incubated at 4° C. overnight with a primary antibody specific to each protein. The membrane was then probed with an appropriate secondary antibody (Cell Signaling Technology, Danvers, USA). β-actin served as an endogenous control. The primary antibodies and dilution ratios were β-actin (Sigma-Aldrich; #A2228; 1:5000), NANOG (D73G4; Cell Signaling Technology; #4903; 1:1000), OCT4 (D705Z; Cell Signaling Technology; #75463; 1:500), SOX2 (EPR3131; Abcam, Cambridge, UK; #ab92494; 1:500), STAT3 (124H6; Cell Signaling Technology; #9139; 1:2000), pSTAT3 (D3A7; Cell Signaling Technology; #9145; 1:1000) and YAP1 (EP1674Y; Abcam, #ab52771; 1:2000).
To determine doses of these drugs that are effective for pathway inhibition, H1299 and H1437 cells were treated with verteporfin or S3I-201 for 72 hours.

[3] = test system: H1299 xenografts; test: H1299 xenograft treatment; type: in vivo, NSG mice; details: verteporfin 50 mg/kg i.p. three times a week; S3I-201 5 mg/kg i.p. every day
Description: (§1) For therapeutic experiments, 4- to 5-week-old NOD/SCID/IL2Ry−/− (NSG) mice were obtained from the Johns Hopkins Medical Institute's (Baltimore, MD) animal care facility. We injected H1299 cells (1×106) and H1437 cells (1×106), which were suspended in the mixture as described above, subcutaneously into both flanks. For the patient-derived xenograft (PDX) models, 13 PDX blocks (CTG0162, 0178, 0502, 0848, 1309, 1351, 1358, 1361, 1762, 1885, 2017, 2481, and 2708) were obtained from Champion Oncology. All these PDXs were established from primary lung adenocarcinoma tumors. The tumor tissues were cut into 4×2 mm pieces and implanted in the subcutaneous spaces of both flanks. When tumor volumes reached to 200+50 mm3, mice were randomly assigned to six experimental groups [control, chemo (cisplatin+gemcitabine), chemo+verteporfin, chemo+S3I-201, “all” (cisplatin+gemcitabine+verteporfin+S3I-201), and verteporfin+S3I-201] at 5 mice per group. Cisplatin (Sigma-Aldrich; #P4394), gemcitabine (Medkoo; #100410), S3I-201 (MedKoo; #202541), and verteporfin (Sigma-Aldrich; #1711461) were used to treat the mice. Cisplatin (2.5 mg/kg) and gemcitabine (120 mg/kg) were administrated via intraperitoneal injection once a week (22). […] Each tumor volume was measured every 3 days. Therapeutic efficacy was evaluated from percentage change of the tumor volume compared with the tumor size before treatment.

[4] = test system: H1437 xenografts; test: H1437 xenograft treatment; type: in vivo, NSG mice; details: verteporfin 50 mg/kg i.p. three times a week; S3I-201 5 mg/kg i.p. every day
Description: as §1

[5] = test system: MB49 derived xenograft; test: MB49 derived xenograft treated with STAT3 inhibitor; type: in vivo, C57BL/6 mice; details: for expression of CSC associated markers and CXCLs in tumor tissues: qRT-PCR
Description: In vivo xenograft assay and treatment. For in vivo xenograft, cells were suspended in 100 μL of a 1:1 mixture of serum-free DMEM and Cultrex Stem Cell Qualified Reduced Growth Factor Basement Membrane Extract (Trevigen, Gaithersburg, USA), and then injected subcutaneously into the both flanks of C57BL/6 mice for MB49/UPPL595/BBN975 cells.
YAP1 induces immunosuppression partially through IL6/STAT3 signaling and STAT3 inhibition mimics the antitumor activity of YAP1 attenuation. The present inventors recently reported that YAP1 positively regulates IL6/STAT3 signaling (38) in LUAD.

[6] = test system: pSTAT3; test: Recombinant IL6 stimulation (Western blotting); type: cell-based, human; details: H1299 and H1437 YAP1-sh cells, 0.1, 1, or 10 ng/mL
Description: Recombinant IL6 stimulation and neutralization of IL6. For exogenous IL6 stimulation, 5×10^5 cells were seeded in 10-cm dishes. After 48 hours, human recombinant IL6 (0.1, 1, or 10 ng/mL) from PeproTech was added to the cells. They were harvested after 48-hour incubation. To neutralize the IL6, Human/Primate IL6 Antibody (R&D Systems) was administered. We cultured 5×10^5 cells in 10-cm dishes. After 48 hours, antibody (1 mg/mL) was added to the cells. They were then harvested after 24 or 48 hours. Protein expression of each sample was evaluated by Western blotting.

[7] = test system: H1299, H1437 and A549 cells; test: Cell viability assay with cisplatin in YAP1/STAT3-modified cells; type: cell-based, human
Description: Cell proliferation assay and viability assay. Cell proliferation and viability were evaluated using Cell Counting Kit-8 (Dojindo Molecular Technologies). For cell proliferation assay, after cells (5×10^3/well) were seeded into 96-well plates with RPMI1640 containing 2% FBS, the optical density of each well was measured every 24 hours for 4 days. We added […] of cell counting kit-8 solution to each well 2 hours before measuring the absorbance (17). For the cell viability assay, after cells were incubated for 48 hours (5×10^3/well), they were exposed to each respective therapeutic agent for 72 hours. Cell viability for each agent was defined as the ratio of absorbance values of the treated cells to control cells (i.e., pharmacologically untreated or genetically unmodified). Absorbance values (450-630 nm) were measured by a Spectra Max 250 96-well Plate Reader (Molecular Devices). Each sample was applied to six wells, and their average rate was calculated. The therapeutic agents used here (in vitro) were cisplatin (Sigma-Aldrich; #P4394), S3I-201 (Santa Cruz Biotechnology; #sc-204304; ref. 18), and verteporfin (MedKoo; #203120).

[8] = test system: H1299, H1437 and A549 cells; test: Apoptosis assay with cisplatin in YAP1-modified cells; type: cell-based, human; details: cisplatin 2 or 5 for 72 hours
Description: Apoptosis assay. Cells were incubated for 72 hours with CDDP (2 μM or 5 μM) or normal saline. Apoptosis assays were conducted using PE Annexin V Apoptosis Detection Kit with 7-AAD (BioLegend, San Diego, USA) according to manufacturer's protocol. Treated cells were analyzed by BD FACSCalibur flow cytometer (BD Biosciences, San Jose, USA).

Cc1ccc(S(=O)(=O)OCC(=O)Nc2ccc(C(=O)O)c(O)c2)cc1 [S3I-201]
mRNA expression of STAT3 and its targeted genes NRP1 and PROS1 [1]: suppressed both STAT3 and its targeted genes; also recorded: inhibited mRNA expressions of not only NRP1 and PROS1 (STAT3-targeting genes) but also STAT3 | pSTAT3 expression [2]: suppressed pSTAT3 without affecting YAP1 or total STAT3 expressions; also recorded: suppressed pSTAT3 in a dose-dependent manner | tumor growth [3]: inhibited growth | tumor growth [4]: did not significantly affect tumor growth | infiltration of MDSCs (GR-1) and CD8+ T cells in the TME, IHC ([5]; mouse, in vivo): decreased infiltration of MDSCs (GR-1) and significantly more CD8+ T cells | tumor growth ([5]; mouse, in vivo): significant regression of the tumor growth | expression of CSC associated markers and CXCLs in tumor tissues ([5]; listed as STAT3 inhibitor): downregulate different CXCR2 associated ligands | expression of CSC associated markers and CXCLs in tumor tissues ([5]; listed as STAT-3 inhibitor): significantly decreased expression of CSC associated markers and CXCLs

IL6: human recombinant IL6 from PeproTech
pSTAT3 level [6]: increased pSTAT3 expressions in a dose-dependent manner | pSTAT3 level ([6]; listed as recombinant human IL6): increased pSTAT3 levels dose dependently

N.N.[Cl][Pt][Cl] [cisplatin]
sensitivity to cisplatin (cell viability) ([7]; A549 YAP1-LV cells versus control cells, 72 hours): relatively resistant; also recorded: higher resistance | sensitivity to cisplatin (cell viability) ([7]; A549 YAP1-LV/STAT3-si cells versus YAP1-LV/STAT3-Ctrl cells): restored cisplatin sensitivity | sensitivity to cisplatin (cell viability) ([7]; H1299 and H1437 YAP1-sh cells versus control cells, 72 hours): increased sensitivities; also recorded: greater sensitivity | sensitivity to cisplatin (cell viability) ([7]; YAP1-sh/STAT3-LV cells (H1299 and H1437) versus YAP1-sh/STAT3-Ctrl cells, 72 hours, 5 cisplatin): restored cell proliferation and cisplatin resistance; also recorded: less sensitivity | sensitivity to cisplatin (cell viability) ([7]; YAP1-sh/STAT3-si cells (H1299 and H1437) versus single inhibition or control): greater sensitivity; also recorded: highest sensitivity | cells undergoing apoptosis ([8]; YAP1-LV cells versus control cells): lower fractions; also recorded: substantially less apoptosis | cells undergoing apoptosis ([8]; YAP1-sh cells versus control cells): higher fractions of apoptotic cells; also recorded: greater percentages of cells undergoing apoptosis
